Experimental data as given in ChEMBL document CHEMBL5137065, “Recent Advances with KDM4 Inhibitors and Potential Applications” (J Med Chem, 2022).

Assays:
[1] = target: T1, Lysine-specific demethylase 4B (Homo sapiens, UniProt O94953); assay: Inhibition of human KDM4B (1 to 347 residues) catalytic domain measured formaldehyde dehydrogenase (FDH)-coupled fluorescence assay
T1 sequence (O94953 whole entry): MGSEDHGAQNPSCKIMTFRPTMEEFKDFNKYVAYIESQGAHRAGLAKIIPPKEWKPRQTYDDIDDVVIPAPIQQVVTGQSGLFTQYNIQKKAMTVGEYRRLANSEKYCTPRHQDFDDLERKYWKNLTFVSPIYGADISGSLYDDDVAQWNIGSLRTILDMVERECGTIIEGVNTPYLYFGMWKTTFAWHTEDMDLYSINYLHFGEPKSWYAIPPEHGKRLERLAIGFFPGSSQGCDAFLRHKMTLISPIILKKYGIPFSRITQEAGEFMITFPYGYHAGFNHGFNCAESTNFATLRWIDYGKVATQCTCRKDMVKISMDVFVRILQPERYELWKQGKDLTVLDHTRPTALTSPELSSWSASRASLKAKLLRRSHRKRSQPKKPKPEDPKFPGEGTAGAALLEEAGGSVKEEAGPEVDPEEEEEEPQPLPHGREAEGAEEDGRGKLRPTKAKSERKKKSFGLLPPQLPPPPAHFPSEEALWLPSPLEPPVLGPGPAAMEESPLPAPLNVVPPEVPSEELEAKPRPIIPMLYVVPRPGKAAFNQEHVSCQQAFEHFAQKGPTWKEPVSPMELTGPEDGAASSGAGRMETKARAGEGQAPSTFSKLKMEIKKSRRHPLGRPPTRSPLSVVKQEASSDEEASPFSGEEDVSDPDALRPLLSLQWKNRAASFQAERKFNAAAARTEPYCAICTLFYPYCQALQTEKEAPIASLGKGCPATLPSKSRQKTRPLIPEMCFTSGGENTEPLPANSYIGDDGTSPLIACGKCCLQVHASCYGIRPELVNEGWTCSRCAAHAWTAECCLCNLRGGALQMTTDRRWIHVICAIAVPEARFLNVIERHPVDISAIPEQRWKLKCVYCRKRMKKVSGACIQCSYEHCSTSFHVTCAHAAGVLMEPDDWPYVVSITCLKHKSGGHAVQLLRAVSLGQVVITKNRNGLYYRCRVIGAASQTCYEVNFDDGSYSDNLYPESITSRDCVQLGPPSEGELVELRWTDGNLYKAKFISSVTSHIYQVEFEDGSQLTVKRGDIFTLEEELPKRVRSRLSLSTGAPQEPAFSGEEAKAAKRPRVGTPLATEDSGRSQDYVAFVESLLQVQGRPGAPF

[2] = target: T2, Lysine-specific demethylase 4C (Homo sapiens, UniProt Q9H3R0); assay: Inhibition of human KDM4C (1 to 347 residues) catalytic domain measured formaldehyde dehydrogenase (FDH)-coupled fluorescence assay
T2 sequence (Q9H3R0 whole entry): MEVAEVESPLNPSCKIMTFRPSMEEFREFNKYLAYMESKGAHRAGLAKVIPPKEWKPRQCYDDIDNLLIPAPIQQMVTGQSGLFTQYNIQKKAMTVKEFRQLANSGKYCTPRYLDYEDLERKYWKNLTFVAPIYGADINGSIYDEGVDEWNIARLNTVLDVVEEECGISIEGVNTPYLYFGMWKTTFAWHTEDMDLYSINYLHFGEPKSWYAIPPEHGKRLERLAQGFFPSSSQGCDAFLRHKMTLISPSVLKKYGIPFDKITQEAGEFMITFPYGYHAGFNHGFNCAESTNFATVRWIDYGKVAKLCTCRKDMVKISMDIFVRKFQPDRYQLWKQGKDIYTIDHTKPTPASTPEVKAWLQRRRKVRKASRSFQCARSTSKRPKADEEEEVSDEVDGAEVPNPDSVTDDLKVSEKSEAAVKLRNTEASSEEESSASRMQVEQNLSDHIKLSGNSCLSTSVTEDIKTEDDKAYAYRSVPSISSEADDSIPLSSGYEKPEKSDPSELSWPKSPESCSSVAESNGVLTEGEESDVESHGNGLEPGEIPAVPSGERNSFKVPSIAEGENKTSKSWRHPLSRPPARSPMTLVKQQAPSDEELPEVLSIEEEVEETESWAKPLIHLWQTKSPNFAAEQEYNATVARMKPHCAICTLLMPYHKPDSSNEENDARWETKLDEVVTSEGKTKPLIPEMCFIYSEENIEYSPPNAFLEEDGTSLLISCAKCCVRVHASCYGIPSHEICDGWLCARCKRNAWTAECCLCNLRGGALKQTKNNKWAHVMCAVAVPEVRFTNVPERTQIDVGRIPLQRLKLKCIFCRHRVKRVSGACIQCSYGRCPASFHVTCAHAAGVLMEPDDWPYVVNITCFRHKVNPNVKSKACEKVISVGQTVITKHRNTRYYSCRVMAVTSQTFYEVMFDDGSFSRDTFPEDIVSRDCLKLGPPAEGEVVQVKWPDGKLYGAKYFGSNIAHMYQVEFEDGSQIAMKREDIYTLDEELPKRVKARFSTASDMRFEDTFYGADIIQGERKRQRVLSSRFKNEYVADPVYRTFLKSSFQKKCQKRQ

[3] = target: T3, Lysine-specific demethylase 4D (Homo sapiens, UniProt Q6B0I6); assay: Inhibition of human KDM4D (1 to 378 residues) catalytic domain measured formaldehyde dehydrogenase (FDH)-coupled fluorescence assay
T3 sequence (Q6B0I6 whole entry): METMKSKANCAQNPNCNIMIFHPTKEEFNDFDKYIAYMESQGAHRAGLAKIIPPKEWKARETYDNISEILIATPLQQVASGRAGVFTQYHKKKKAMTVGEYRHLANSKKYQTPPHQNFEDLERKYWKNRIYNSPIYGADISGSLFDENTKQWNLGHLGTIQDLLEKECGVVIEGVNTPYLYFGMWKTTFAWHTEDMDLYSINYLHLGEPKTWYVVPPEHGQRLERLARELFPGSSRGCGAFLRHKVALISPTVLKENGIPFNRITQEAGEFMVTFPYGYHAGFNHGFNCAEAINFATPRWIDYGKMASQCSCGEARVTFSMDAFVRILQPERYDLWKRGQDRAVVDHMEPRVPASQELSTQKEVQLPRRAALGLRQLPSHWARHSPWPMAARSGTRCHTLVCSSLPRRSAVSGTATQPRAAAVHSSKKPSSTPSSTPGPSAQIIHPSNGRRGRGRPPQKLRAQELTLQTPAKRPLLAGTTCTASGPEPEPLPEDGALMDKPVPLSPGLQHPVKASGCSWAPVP

Measured: IC50

COC(=O)Cc1cc(O)n(-c2nc3ccccc3[nH]2)n1
4 µM: all assays above
